PubChem BioAssay (NCI)
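Interpolation was linear, between the two tested concentrations surrounding the appropriate level; five concentrations were tested over 48 hours in 96-well plates. GI50 is the concentration that inhibits growth by half. The concentration for full growth arrest is given as TGI.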

Tests used:
Test in all cases: growth of human tumour cells (NCI), 48 h
HCC-2998 colon = system: HCC-2998 colon
NCI-H23 lung = system: NCI-H23 lung
COLO 205 colon = system: COLO 205 colon
UO-31 renal = system: UO-31 renal
SF-539 CNS = system: SF-539 CNS
UACC-257 melanoma = system: UACC-257 melanoma
OVCAR-4 ovarian = system: OVCAR-4 ovarian
HOP-92 NSCLC = system: HOP-92 NSCLC
HT29 colon = system: HT29 colon
786-0 renal = system: 786-0 renal

## Nc1[nH]nc2nc3ccccc3nc12
HCC-2998 colon
  TGI: > 100 µM
NCI-H23 lung
  TGI: > 100 µM
COLO 205 colon
  TGI: > 100 µM
UO-31 renal
  TGI: > 100 µM
SF-539 CNS
  TGI: > 100 µM
UACC-257 melanoma
  TGI: > 100 µM
OVCAR-4 ovarian
  TGI: > 100 µM
HOP-92 NSCLC
  TGI: > 100 µM
HT29 colon
  TGI: > 100 µM

## NNC(=S)NCCNC(=S)NN
HCC-2998 colon
  TGI: > 100 µM
NCI-H23 lung
  TGI: > 100 µM
COLO 205 colon
  TGI: > 100 µM
UO-31 renal
  TGI: > 100 µM
UACC-257 melanoma
  TGI: > 100 µM
OVCAR-4 ovarian
  TGI: > 100 µM
HT29 colon
  TGI: > 100 µM
786-0 renal
  TGI: > 100 µM

## O=C(N/N=C\c1ccc(N(CCCl)CCCl)cc1[N+](=O)[O-])c1cccnc1
HCC-2998 colon
  GI50: > 100 µM
  TGI: > 100 µM
NCI-H23 lung
  GI50: > 100 µM
  TGI: > 100 µM
COLO 205 colon
  GI50: > 100 µM
  TGI: > 100 µM
UO-31 renal
  GI50: > 100 µM
  TGI: > 100 µM
SF-539 CNS
  GI50: > 100 µM
  TGI: > 100 µM
UACC-257 melanoma
  GI50: > 100 µM
  TGI: > 100 µM
HOP-92 NSCLC
  GI50: > 100 µM
  TGI: > 100 µM
HT29 colon
  GI50: > 100 µM
  TGI: > 100 µM

## NC(CSSCC(N)=NCC12CC3CC(CC(C3)C1)C2)=NCC12CC3CC(CC(C3)C1)C2
NCI-H23 lung
  TGI: 32.3 µM
COLO 205 colon
  TGI: 52.5 µM
UO-31 renal
  TGI: 46.7 µM
SF-539 CNS
  TGI: 34.3 µM
UACC-257 melanoma
  TGI: 30.5 µM
OVCAR-4 ovarian
  TGI: 45.3 µM
HOP-92 NSCLC
  TGI: 32.7 µM
HT29 colon
  TGI: 28.4 µM
786-0 renal
  TGI: > 100 µM

## O=C(Nc1cccc([N+](=O)[O-])c1)c1n[nH]n(-c2cccc([N+](=O)[O-])c2)c1=O
NCI-H23 lung
  TGI: > 100 µM
COLO 205 colon
  TGI: > 100 µM
UO-31 renal
  TGI: > 100 µM
SF-539 CNS
  TGI: > 100 µM
UACC-257 melanoma
  TGI: > 100 µM
HT29 colon
  TGI: > 100 µM
786-0 renal
  TGI: > 100 µM

## Cn1cc(-c2ccc3cc(-c4ccc(CC(=O)Nc5cc(C(C)(C)C)on5)cc4)cnc3c2)cn1
HCC-2998 colon
  GI50: 2.89 µM
  TGI: 21 µM
NCI-H23 lung
  GI50: 2.27 µM
  TGI: 10.5 µM
COLO 205 colon
  GI50: 2.95 µM
  TGI: > 100 µM
UO-31 renal
  GI50: 0.382 µM
  TGI: 3.14 µM
SF-539 CNS
  GI50: 0.339 µM
  TGI: 14.4 µM
HOP-92 NSCLC
  GI50: 4.23 µM
  TGI: 26 µM
HT29 colon
  GI50: 2.26 µM
  TGI: > 100 µM

## O=c1ccn(C2OC(CO)C(O)C2F)c(=O)n1Cc1ccccc1 (stereo unspecified)
NCI-H23 lung
  TGI: > 100 µM
COLO 205 colon
  TGI: > 100 µM
UO-31 renal
  TGI: > 100 µM
SF-539 CNS
  TGI: > 100 µM
UACC-257 melanoma
  TGI: > 100 µM
HT29 colon
  TGI: > 100 µM
786-0 renal
  TGI: > 100 µM

## CC(=O)Oc1c2c(c3n(c1=O)CCCC3)C(=O)N(c1ccccc1)C2=O
HCC-2998 colon
  TGI: 97.2 µM
NCI-H23 lung
  TGI: > 100 µM
COLO 205 colon
  TGI: > 100 µM
UO-31 renal
  TGI: > 100 µM
SF-539 CNS
  TGI: > 100 µM
OVCAR-4 ovarian
  TGI: > 100 µM
HOP-92 NSCLC
  TGI: > 100 µM
HT29 colon
  TGI: > 100 µM
786-0 renal
  TGI: > 100 µM

## CC1(C)CCC(C)(C)C1C(=O)NC(O)C(=O)O (stereo unspecified)
HCC-2998 colon
  TGI: > 100 µM
COLO 205 colon
  TGI: > 100 µM
UO-31 renal
  TGI: > 100 µM
SF-539 CNS
  TGI: > 100 µM
786-0 renal
  TGI: > 100 µM

## O=C(N=c1ccc2nc(=O)[nH]n(O)c-2c1)C(F)(F)F
NCI-H23 lung
  TGI: > 100 µM
COLO 205 colon
  TGI: > 100 µM
UO-31 renal
  TGI: > 100 µM
SF-539 CNS
  TGI: > 100 µM
UACC-257 melanoma
  TGI: > 100 µM
OVCAR-4 ovarian
  TGI: > 100 µM
HT29 colon
  TGI: > 100 µM
786-0 renal
  TGI: > 100 µM

## O=C(CCC=C(S(=O)(=O)c1ccccc1)S(=O)(=O)c1ccccc1)c1ccccc1
HCC-2998 colon
  TGI: 21.7 µM
COLO 205 colon
  TGI: 19.8 µM
UO-31 renal
  TGI: 18.3 µM
SF-539 CNS
  TGI: 6.57 µM
UACC-257 melanoma
  TGI: 23.3 µM
OVCAR-4 ovarian
  TGI: 63.6 µM
HOP-92 NSCLC
  TGI: 30.6 µM
HT29 colon
  TGI: 17.5 µM
786-0 renal
  TGI: 11.8 µM
